The values that follow come from paper PMC12498190, “A Photocaged N‐Phosphonopiperidinone as a Selective Photo‐Cleavable DPP8/9 Inhibitor” (Chembiochem, 2025).

This data set is classed as physicochemical. The following applies: 50 µM in 10% acetonitrile/water, green LED 520-530 nm, 30 W. The method, then: With 5 in our hands, we then started our probe characterization by determining the velocity of the photorelease reaction, i.e., the light‐triggered cleavage of the photocage, thereby delivering again the “active” inhibitor 1. To this end, a 50 µM solution of 5 in 10% acetonitrile in MS‐grade water was irradiated with a green LED lamp (λ = 520‐530 nm, 30 W) for the indicated time periods, and the release of the active inhibitor 1 was quantified via liquid chromatography‐mass spectrometry (LC–MS) analysis (Figure 1A). […] After 3 min, cleavage was quantitative (>99%). Importantly, the only products observed were the desired ‘free’ inhibitor 1 and the cleaved photogroup, indicating a clean activation to 1.
Figure 1 DPP inhibition by photo‐cleavable inhibitors. A) LC‐MS analysis of the photocleavage reaction of 5 after irradiation with green light. 50 µM of compound 5 was irradiated with a green LED lamp (λ = 520‐530 nm, 30 W) for up to 5 min, and the resulting reaction mixture was analyzed via LC‐MS. […] B) Resulting quantification of the photolysis of 5 based on peak areas depicted in A) (n = 3 technical replicates). […] Enzyme activity was determined by measuring the release of AMC from the substrate GP‐AMC. […]
Compound 5 was dissolved in DMSO. In order to quantify the effect of irradiation time on photocleavage of the BODIPY moiety, 50 µL aliquots of a 50 µM solution of 5 in 10% acetonitrile (ACN; VWR Chemicals, USA) in MS‐grade water (VWR Chemicals, USA) were irradiated for 0–5 min with a green LED lamp (λ = 520–530 nm, 30 W; Eurolite, Germany) at room temperature (RT) and gentle shaking (final DMSO concentration: 0.5%).
Quantification of inhibitor release was then determined via LC‐MS on an LTQ XL linear ion trap mass spectrometer (ITMS; Thermo Fisher Scientific, USA) coupled to a DIONEX UltiMate 3000 system (Thermo Fisher Scientific, USA), operated using Xcalibur software 4.4.16.14. […] Quantification was done using Freestyle v1.6. based on the UV spectra (λ = 254 nm) using the Avalon peak detection algorithm. […]

Where two headings read alike, the source gives them in different places. Some results are limits rather than exact numbers.

Regarding `CCCCCc1ccc(SCCP(=O)(OCC)N2CCC[C@H](NC(=O)OCC3=C4C(C)=CC(C)=[N+]4[B-](C)(C)n4c(C)cc(C)c43)C2=O)cc1` (some centres unmarked) [Compound 5], the Photocage cleaved off (after 2 min) stood at 95% and the Photocage cleaved off (after 3 min) is given as > 99%.
